Values of other authors as cited in patent US20160220569A1, “CDK4/6 Inhibitor Dosage Formulations For The Protection Of Hematopoietic Stem And Progenitor Cells During Chemotherapy” (G1 Therapeutics, Inc., priority 2015, published 2016).
Where two headings read alike, the source gives them in different places.

Legend:
[1] = cited from earlier work
[2] = cited from earlier work; remark: listed apart in the source
[3] = Grade 3/4 neutropenia and leukopenia with palbociclib

For `CC(=O)c1c(C)c2cnc(Nc3ccc(N4CCNCC4)cn3)nc2n(C2CCCC2)c1=O` [palbociclib, 6-acetyl-8-cyclopentyl-5-methyl-2-(5-piperazin-1-yl-pyridin-2-ylammino)-8H-pyrido-[2,3-d]-pyrimidin-7-one], the “AUC (0-10)” value ([1]; 100 mg QD, Day 1) is listed as 333 ng·h/mL, the Cmax ([1]; 100 mg QD, Day 1) is listed as 44 ng/mL and the Tmax ([1]; 100 mg QD, Day 1) is listed as 4 h. For the same compound, the “AUC (0-10)” value ([1]; 100 mg QD, Day 8) was 433 ng·h/mL, the Cmax ([1]; 100 mg QD, Day 8) was 58 ng/mL and the Tmax ([1]; 100 mg QD, Day 8) was 4 h. For the same compound, the “AUC (0-10)” value ([1]; 150 mg QD, Day 1) was 622 ng·h/mL, the Cmax ([1]; 150 mg QD, Day 1) was 78 ng/mL and the Tmax ([1]; 150 mg QD, Day 1) was 6 h. The “AUC (0-10)” value ([1]; 150 mg QD, Day 8) was 1599 ng·h/mL, the Cmax ([1]; 150 mg QD, Day 8) was 194 ng/mL and the Tmax ([1]; 150 mg QD, Day 8) was 7 h. The “AUC(0-inf)” value ([1]; 150 mg oral) was 2002 n*hr/ml, the CL/F ([1]; 150 mg oral) was 88.5 L/h and the Cmax ([1]; 150 mg oral) was 78 ng/mL. For the same compound, the T1/2 ([1]; 150 mg oral) was 26.7 h, the “AUC (0-10)” value ([1]; 200 mg QD, Day 1) was 525 ng·h/mL and the Cmax ([1]; 200 mg QD, Day 1) was 81 ng/mL. For the same compound, the Tmax ([1]; 200 mg QD, Day 1) was 5.7 h, the “AUC (0-10)” value ([1]; 200 mg QD, Day 8) was 1395 ng·h/mL and the Cmax ([1]; 200 mg QD, Day 8) was 174 ng/mL. For the same compound, the Tmax ([1]; 200 mg QD, Day 8) was 4 h, the “AUC (0-10)” value ([1]; 225 mg QD, Day 1) was 718 ng·h/mL and the Cmax ([1]; 225 mg QD, Day 1) was 104 ng/mL. For the same compound, the Tmax ([1]; 225 mg QD, Day 1) was 4 h, the “AUC (0-10)” value ([1]; 225 mg QD, Day 8) was 1491 ng·h/mL and the Cmax ([1]; 225 mg QD, Day 8) was 186 ng/mL. The Tmax ([1]; 225 mg QD, Day 8) was 4.5 h, the T1/2 ([1]; palbociclib, literature) was “roughly 26.7 hours” and the “patients requiring a dose interruption” value [2, 3] was 71%. For the same compound, the “patients requiring a dose reduction” value [2, 3] was 35%.
For `CN(C)C(=O)c1cc2cnc(Nc3ccc(N4CCNCC4)cn3)nc2n1C1CCCC1` [ribociclib], the associated adverse effect ([2]; ribociclib administration) is given as “QT prolongation”.
For `CCN1CCN(Cc2ccc(Nc3ncc(F)c(-c4cc(F)c5nc(C)n(C(C)C)c5c4)n3)nc2)CC1` [Abemaciclib], the “diarrhea in clinical trials” value ([2]; abemaciclib, gastrointestinal toxicity) is listed as “greater than 50%”.
